Entries after “also recorded” stand apart in the source; their conditions may differ. Numbered stars: 1 amine (or outer) side, 2 acyl side, 3 side chain; on linkers, the order of the positions; unused ones are H or OH. Bridge positions count the residues as written; N and C are the ends. Square brackets hold non-standard residues; d marks the D form. Peptide text beside a SMILES is read from it. I, II: the chains in the order shown. Actinocin(9to1) = Cc1c2oc3c(C)ccc(C(=O)[*:1])c3nc-2c(C(=O)[*:2])c(N)c1=O; NMeV = CN[C@H](C(=O)O)C(C)C; Sar = CNCC(=O)O
Assays:
NSD2-PWWP1 = target: T1, NSD2-PWWP1 (Homo sapiens, UniProt O96028); experiment: SPR binding to immobilized NSD2-PWWP1
T1 sequence (O96028 208-368): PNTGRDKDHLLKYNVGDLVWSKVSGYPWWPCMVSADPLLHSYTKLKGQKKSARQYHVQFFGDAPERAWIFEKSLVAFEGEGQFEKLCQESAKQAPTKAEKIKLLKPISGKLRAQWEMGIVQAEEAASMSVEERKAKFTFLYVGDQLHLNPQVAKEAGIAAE

[1] = system: panel of 33 methyltransferase domains, including NSD1, NSD2, NSD3 and SETD2; experiment: Methyltransferase selectivity panel; type: biochemical; conditions: 1 and 10 μM compound
[2] = target: human sodium-dependent serotonin transporter (Homo sapiens, UniProt P31645); experiment: NIMH PDSP panel of CNS receptors, channels and transporters; type: binding
[3] = target: T2, NSD3-PWWP1 interaction with histone H3.3 (Homo sapiens, UniProt Q9BZ95); experiment: NanoBRET PPI assay, NSD3-PWWP1; type: cell-based; conditions: U2OS cells, 10 μM compound
T2 sequence (Q9BZ95 270-333 limits assumed): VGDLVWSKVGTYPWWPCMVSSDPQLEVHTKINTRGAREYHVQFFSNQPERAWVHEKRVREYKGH

[4] = system: adherent or hematopoietic malignancy cell lines; experiment: Cytotoxicity profiling; type: cell-based; conditions: up to 5 μM over 3–12 d
[5] = system: endogenous NSD2 localization in U2OS cells; experiment: Confocal microscopy of endogenous NSD2 nucleolar localization; type: cell-based; conditions: 4 h; for steady-state pool of nucleolar NSD2 under nucleolar perturbation: actinomycin D 50 nM, doxorubicin 1 μM
[6] = system: NSD2-GFP localization in U2OS cells; experiment: Nucleolar colocalization of GFP-tagged NSD2 WT and mutants with RFP-fibrillarin; type: cell-based; conditions: 4 h, 5 μM compound
[7] = system: fl-NSD2 chromatin association in KMS-11 cells; experiment: Cell fractionation, NSD2 release from chromatin; type: cell-based; conditions: KMS-11 cell fractionation, 10 μM compound
[8] = system: global H3K36 methylation in KMS-11 cells; experiment: Western blotting for global H3K36 methylation; type: cell-based; conditions: 72 h
KMS-11 t(4; 14) MM cells = experiment: Proliferation of KMS-11 cocultured with OP9 bone marrow stromal cells; type: cell-based; conditions: 5 μM for 10 d before seeding on OP9
[9] = system: loci-specific H3K36me2 levels in KMS-11 cells; experiment: H3K36me2 ChIP-qPCR; type: cell-based; conditions: 5 μM, 72 h
[10] = system: mRNA levels of NSD2 target genes in KMS-11 cells; experiment: RT-qPCR of NSD2 target genes; type: cell-based; conditions: 5 μM, 72 h
[11] = system: ribosomal RNA (rRNA) transcription; experiment: rRNA transcription; conditions: for pre-rRNA expression levels by RT-qPCR: 5 μM compound at 2, 4, or 16 hours
endogenous NSD2 = target: T3, endogenous NSD2 (Homo sapiens, UniProt O96028); experiment: UNC7096 chemical pulldown and chemical proteomics in KMS-11 whole-cell lysates; type: binding
T3 sequence (O96028 1-627 limits assumed): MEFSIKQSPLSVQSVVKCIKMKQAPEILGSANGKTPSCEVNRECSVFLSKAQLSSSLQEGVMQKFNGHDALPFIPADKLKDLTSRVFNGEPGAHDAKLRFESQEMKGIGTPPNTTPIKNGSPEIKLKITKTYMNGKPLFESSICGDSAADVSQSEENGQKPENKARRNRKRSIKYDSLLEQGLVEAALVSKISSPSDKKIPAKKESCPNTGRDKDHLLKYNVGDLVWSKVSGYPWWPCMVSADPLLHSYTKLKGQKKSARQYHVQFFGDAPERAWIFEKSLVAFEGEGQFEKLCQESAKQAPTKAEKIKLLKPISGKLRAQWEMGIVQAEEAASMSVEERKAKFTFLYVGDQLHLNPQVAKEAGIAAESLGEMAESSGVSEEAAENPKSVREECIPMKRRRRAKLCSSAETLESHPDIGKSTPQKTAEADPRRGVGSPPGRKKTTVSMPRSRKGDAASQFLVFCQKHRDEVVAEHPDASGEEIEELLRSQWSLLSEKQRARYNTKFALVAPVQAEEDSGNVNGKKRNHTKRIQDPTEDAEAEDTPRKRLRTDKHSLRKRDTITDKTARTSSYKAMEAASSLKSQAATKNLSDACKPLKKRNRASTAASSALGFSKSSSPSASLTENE

[12] = target: T4, NSD2-PWWP1 interaction with nucleosomal H3K36me2 (Homo sapiens, UniProt O96028); experiment: AlphaScreen; type: binding
T4 sequence (O96028 208-368): T1 sequence (O96028 208-368)

[13] = target: T5, fl-NSD2 interaction with nucleosomal H3K36me2 (Homo sapiens, UniProt O96028); experiment: AlphaScreen; type: binding; conditions: read-out: IC50, disengagement of fl-NSD2 from nucleosomal H3K36me2, in the presence of SSD (2 μg ml^−1)
T5 sequence (O96028 1-1365): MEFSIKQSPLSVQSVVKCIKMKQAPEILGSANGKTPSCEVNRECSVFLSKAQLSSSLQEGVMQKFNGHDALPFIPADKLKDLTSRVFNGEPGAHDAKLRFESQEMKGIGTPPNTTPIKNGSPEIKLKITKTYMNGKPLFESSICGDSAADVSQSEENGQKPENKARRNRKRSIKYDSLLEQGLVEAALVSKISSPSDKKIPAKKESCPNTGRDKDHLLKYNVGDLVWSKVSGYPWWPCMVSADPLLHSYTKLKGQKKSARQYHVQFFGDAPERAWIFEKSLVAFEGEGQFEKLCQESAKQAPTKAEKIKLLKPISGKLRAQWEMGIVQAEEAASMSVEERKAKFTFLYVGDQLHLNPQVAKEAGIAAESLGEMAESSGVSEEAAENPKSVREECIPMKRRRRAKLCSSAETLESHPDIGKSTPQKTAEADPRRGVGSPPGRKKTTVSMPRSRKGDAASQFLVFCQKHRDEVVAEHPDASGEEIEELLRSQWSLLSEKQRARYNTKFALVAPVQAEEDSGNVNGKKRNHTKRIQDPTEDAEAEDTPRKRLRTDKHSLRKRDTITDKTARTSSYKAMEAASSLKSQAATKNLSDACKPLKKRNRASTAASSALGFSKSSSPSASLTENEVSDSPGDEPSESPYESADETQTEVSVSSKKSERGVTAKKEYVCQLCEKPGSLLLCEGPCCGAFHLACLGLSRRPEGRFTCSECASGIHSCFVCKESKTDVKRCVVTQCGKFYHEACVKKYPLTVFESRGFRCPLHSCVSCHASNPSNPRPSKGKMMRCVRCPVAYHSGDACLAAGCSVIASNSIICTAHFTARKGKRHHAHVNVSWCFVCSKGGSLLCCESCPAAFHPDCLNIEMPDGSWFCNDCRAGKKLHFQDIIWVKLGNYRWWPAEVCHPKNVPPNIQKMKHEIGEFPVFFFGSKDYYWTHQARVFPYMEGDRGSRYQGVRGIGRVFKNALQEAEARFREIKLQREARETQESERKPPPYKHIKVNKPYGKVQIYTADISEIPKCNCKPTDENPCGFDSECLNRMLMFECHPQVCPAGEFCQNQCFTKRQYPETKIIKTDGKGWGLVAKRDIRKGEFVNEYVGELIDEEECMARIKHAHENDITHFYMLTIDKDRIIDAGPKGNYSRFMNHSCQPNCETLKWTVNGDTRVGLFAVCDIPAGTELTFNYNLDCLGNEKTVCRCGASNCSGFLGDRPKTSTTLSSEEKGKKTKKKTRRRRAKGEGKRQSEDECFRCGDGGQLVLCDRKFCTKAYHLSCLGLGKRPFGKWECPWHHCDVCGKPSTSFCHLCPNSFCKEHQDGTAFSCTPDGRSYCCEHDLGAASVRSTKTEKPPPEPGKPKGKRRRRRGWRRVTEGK

[14] = target: T6, dsDNA binding to NSD2-PWWP1 (Homo sapiens, UniProt O96028); experiment: Fluorescence polarization DNA binding and displacement assay; conditions: FP
T6 sequence (O96028 208-368): T1 sequence (O96028 208-368)

[15] = system: 15 other human PWWP domains; conditions: DSF, 100 μM compound

Sequence of human sodium-dependent serotonin transporter (P31645 whole entry): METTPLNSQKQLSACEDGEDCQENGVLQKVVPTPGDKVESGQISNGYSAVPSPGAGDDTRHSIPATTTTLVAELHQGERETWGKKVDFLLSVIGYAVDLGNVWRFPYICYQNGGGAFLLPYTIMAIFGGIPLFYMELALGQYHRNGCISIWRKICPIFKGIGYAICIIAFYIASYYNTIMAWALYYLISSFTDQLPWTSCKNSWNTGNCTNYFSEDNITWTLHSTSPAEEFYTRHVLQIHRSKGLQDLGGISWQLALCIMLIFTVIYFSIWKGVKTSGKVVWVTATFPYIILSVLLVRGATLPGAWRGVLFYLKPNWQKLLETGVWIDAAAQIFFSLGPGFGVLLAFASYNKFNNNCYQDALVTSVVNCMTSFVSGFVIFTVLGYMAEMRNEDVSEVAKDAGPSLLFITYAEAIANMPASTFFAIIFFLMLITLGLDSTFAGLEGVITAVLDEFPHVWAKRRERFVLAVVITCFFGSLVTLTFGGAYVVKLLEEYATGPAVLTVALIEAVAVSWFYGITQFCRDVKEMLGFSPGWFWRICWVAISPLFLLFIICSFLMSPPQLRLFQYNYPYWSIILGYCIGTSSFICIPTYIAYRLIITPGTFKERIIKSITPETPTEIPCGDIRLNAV

## O=C1COc2cc(C(=O)N(Cc3cccs3)C3CC3)ccc2N1 [MRT866]
NSD2-PWWP1
  Kd: 349 ± 19 nM

## O=C1COc2cc(C(=O)N(Cc3ccc(C(=O)Nc4ccncn4)cc3)C3CC3)ccc2N1 [UNC6934]
[1]
  inhibition of methyltransferases: did not inhibit any
[2]
  Ki: 1400 ± 800 nM
  inhibition at 10 µM: > 50%
[3]
  BRET signal of NSD3-PWWP1: unaffected
[4]
  acute cytotoxic effects: no acute cytotoxic effects
[5]; 5 μM compound
  NSD2 signal within nucleoli: increase in NSD2 signal within nucleoli
  correlation (PCC) between NSD2 and fibrillarin signals: significant increase
[6]
  nucleolar localization of PWWP1 aromatic cage mutant NSD2-GFP: no further increase
  nucleolar signal of WT NSD2-GFP: increase in nucleolar signal
[6]; H762R, W894A
  nucleolar colocalization of PHD2 and PWWP2 mutant NSD2-GFP: additive effect
[7]
  release of fl-NSD2 from chromatin: modest release
[8]
  global H3K36 methylation: no significant change; also recorded: no changes
KMS-11 t(4; 14) MM cells
  proliferation of KMS-11 cells grown on bone marrow stroma: no changes
[9]
  loci-specific H3K36me2 levels: did not observe changes
[10]
  mRNA levels of NSD2 target genes: did not observe changes
[11]; 5 μM compound
  effect on ribosomal RNA (rRNA) transcription: no significant effect
[11]
  pre-rRNA expression levels by RT-qPCR: no major effect

## O=C(CCCC[C@@H]1SC[C@@H]2NC(=O)N[C@@H]21)NCCOCCOCCOCCOCCOCCOCCOCCOCCOCCOCCOCCNC(=O)c1ccc(NC(=O)c2ccc(CN(C(=O)c3ccc4c(c3)OCC(=O)N4)C3CC3)cc2)cc1 [UNC7096]
Endogenous NSD2; KMS-11 whole-cell lysates, immunoblotting
  enrichment of NSD2-short and NSD2-long isoforms by pulldown: efficiently enriched
NSD2-PWWP1
  Kd: 46 nM

## CC(C)N(Cc1ccc(C(=O)Nc2ccncn2)cc1)C(=O)c1ccc2c(c1)OCC(=O)N2 [UNC7145]
[1]
  inhibition of methyltransferases: inactive
[12]
  IC50, disruption of NSD2-PWWP1 interaction with nucleosomal H3K36me2: no measurable effect
[13]
  IC50: 5100 ± 1000 nM
[14]; 20 μM compound, NSD2-PWWP1 up to 2.5 μM
  pattern of dsDNA binding to NSD2-PWWP1 in the presence of compound: No significant difference
[14]; compound up to 25 μM
  displacement of fluorescein-labelled dsDNA from NSD2-PWWP1: no significant effect
Endogenous NSD2; label-free proteomics, 20 μM compound, relative to DMSO
  proteins depleted from UNC7096 pulldown by competition: did not considerably alter the enrichment profile
[4]
  acute cytotoxic effects: no acute cytotoxic effects
[5]; 5 μM compound
  NSD2 signal within nucleoli: no effect
[8]
  global H3K36 methylation: no significant change
[15]
  selectivity over other PWWP domains: inactive
[11]
  pre-rRNA expression levels by RT-qPCR: no major effect

## Cc1c2oc3c(C)ccc(C(=O)N[C@@H]4C(=O)N[C@H](C(C)C)C(=O)N5CCC[C@H]5C(=O)N(C)CC(=O)N(C)[C@@H](C(C)C)C(=O)O[C@@H]4C)c3nc-2c(C(=O)N[C@@H]2C(=O)N[C@H](C(C)C)C(=O)N3CCC[C@H]3C(=O)N(C)CC(=O)N(C)[C@@H](C(C)C)C(=O)O[C@@H]2C)c(N)c1=O [actinomycin D, reference compound] (I: T[dV]P[Sar][NMeV] / II: T[dV]P[Sar][NMeV]; ester I:1-I:C, II:1-II:C; linker I:N-II:N via Actinocin(9to1))
[5]
  steady-state pool of nucleolar NSD2 under nucleolar perturbation: sensitive

## COc1cccc2c1C(=O)c1c(O)c3c(c(O)c1C2=O)C[C@@](O)(C(=O)CO)C[C@@H]3O[C@H]1C[C@H](N)[C@H](O)[C@H](C)O1 [doxorubicin, reference compound]
[5]
  steady-state pool of nucleolar NSD2 under nucleolar perturbation: sensitive
